# Patent EP4635958A1, “PYRIMIDINE-CONTAINING POLYCYCLIC DERIVATIVE INHIBITOR, AND PREPARATION METHOD THEREFOR AND USE THEREOF” (Shanghai Hansoh Biomedical Co., Ltd., priority 2022, dated 2024)
# Tests used:
# [1] = target: T1, KRAS G12D-SOS1 (Homo sapiens, UniProt P01116, G12D); experiment: Blocking of KRAS G12D-SOS1 protein binding (Cisbio KRAS-G12D/SOS1 Binding Assay Kit, time-resolved fluorescence)
# T1 construct: purchased Cisbio 63ADK000CB17PEG
# Text: • 1. Experimental objective: […] Experimental reagents and instruments The centrifuge (5810R) was purchased from Eppendorf; the pipette was purchased from Eppendorf or Rainin; and the microplate reader was purchased from BioTek (United States) with a model of SynergyH1 multifunctional microplate reader. KRAS-G12D/SOS1 Binding Assay Kit was purchased from Cisbio, with a catalog number of 63ADK000CB17PEG; GTP was purchased from Sigma, with a catalog number of G8877; 384-well plate was purchased from Perkin Elmer, with a catalog number of 6007299. The Diluent buffer in the kit was used to dilute the compound into 10× compound solution of different concentrations, and 2 uL was added to each well of the 384-well plate. Tag2-KRAS G12D protein and GTP were formulated into a mixed solution of 5×KRAS G12D-GTP protein using Diluent buffer, and Tag1-SOS1 protein was formulated into a 5×SOS1 protein solution using Diluent buffer. Each solution was added to the 384-well plate separately at 4 uL per well, and incubated at room temperature for 15 min. A mixed solution of 2× anti-Tag1-Tb^3+ and anti-Tag2-XL665 formulated using detection buffer was added to the 384-well plate at 10 µL per well, and incubated at 4°C in the dark for 3 h.
# [2] = target: KRAS WT (Homo sapiens, UniProt P01116); experiment: KRAS WT biochemical assay (Table 1, no method of its own); format: binding
# [3] = tested on: p-ERK in AsPC-1 cells; experiment: Inhibition of p-ERK in AsPC-1 cells (LANCE Ultra phospho-ERK1/2 kit); format: cell-based; conditions: Homo sapiens, ASPC1, 2 h with compound, read-out: AsPC-1_pERK IC50
# Method: 1. Experimental objective: The inhibition activity of the example compounds on the phosphorylated ERK level in KRAS G12D mutant cells AsPC-1 was determined. 2. Experimental instruments: • 2.1 Instruments: Microplate reader (BioTek Synergy H1); Pipette (Eppendorf & Rainin) • 2.2 Reagents: Phosphorylated ERK1/2 (T202-Y204) LANCE Ultra Cellular Detection Kit was purchased from PerkinElmer, with a catalog number of TRF4000M; DMEM was purchased from Gibco, with a catalog number of 11995065; FBS was purchased from Gibco, with a catalog number of 10091148; PBS was purchased from Gibco, with a catalog number of 10010023; trypsin was purchased from Gibco, with a catalog number of 25200056; cell culture plates were purchased from Corning Company, with a catalog number of 3610; White opaque OptiPlate™-384 plates were purchased from PerkinElmer, with a catalog number of 6007290. 3. Experimental method: When AsPC-1 cells were cultured to appropriate confluence, the AsPC-1 cells were collected, and the cell density was adjusted to 1 × 10^6/mL using complete culture medium. […] The plate was read using BioTek Synergy H1 and the signal values at the emission wavelengths of 620 nm and 665 nm were detected using a time-resolved fluorescence program. […]
# [4] = rat, plasma
# Text: The purpose of this experiment was to detect the stability of the example compounds in plasma of mouse, rat, dog and human.
# Liquid chromatography-mass spectrometer, centrifuge, vortexer, pipette, continuous dispenser, 96-well plate, 50% methanol aqueous solution, acetonitrile solution containing internal standard, blank matrix (plasma of rat, dog, or human), Propantheline (propantheline bromide), Mevinolin (lovastatin), and test compound.
# After whole blood was collected from animals or humans, it was placed in a test tube containing an anticoagulant and centrifuged at 3500 rpm for 10 min to collect the upper pale yellow plasma.
# The compound was weighed and the stock solution was formulated with DMSO and the working solution was formulated with 100 mM phosphate buffer.
# 2.36 mg of propantheline bromide was weighed and diluted with 1 mL of DMSO into a 10 mM stock solution; 10 µL of 10 mM stock solution was pipetted into 1 mL of 100 mM phosphate buffer to achieve a final concentration of 100 µM.
# 4.05 mg of lovastatin was weighed and diluted with 1 mL of DMSO into a 10 mM stock solution; 10 µL of 10 mM stock solution was pipetted into 1 mL of 100 mM phosphate buffer to achieve a final concentration of 100 µM.
# • 1) In a 96-well plate, 285 µL of plasma and 15 µL of 10 µM compound (test compound) were added in sequence and incubated at 37°C. • 2) 40 µL was taken at 0, 15, 30, 60, 90, and 120 min (the sampling point can be fine-tuned) and 160 µL of acetonitrile stop solution containing internal standard was add. • 3) After centrifugation (3500 rpm, 10 min), 50 µL of supernatant was taken, and 50 µL of DDH2O added for dilution and then the obtained mixture was injected into LC-MS/MS.
# • Instruments: Shimadzu LC-20 AD • Chromatographic column: Phenomenex Gemiu ® C18 (50*4.6 mm, 5 µm particle size); • mobile phase: A: Acetonitrile, B: 0.1% formic acid solution 0-8 min: 5% A→95% A, 2.0-2.1 min: 90%A→5% A; Flow rate: 0.8 mL/min; Run time: 5.0 min; Injection volume: 5 µL.
# • Instrument: API4000 liquid chromatography-mass spectrometer, AB Company, USA; • the ion source was electrospray ionization source (ESI); • drying gas (N2) temperature was 500°C; • electrospray voltage was 5500V; • the detection method was positive ion detection; • the scanning method was selected reaction monitoring (MRM); • the scanning time was 0.1s.
# T1 sequence (P01116 1-188 isoform P01116-2 G12D): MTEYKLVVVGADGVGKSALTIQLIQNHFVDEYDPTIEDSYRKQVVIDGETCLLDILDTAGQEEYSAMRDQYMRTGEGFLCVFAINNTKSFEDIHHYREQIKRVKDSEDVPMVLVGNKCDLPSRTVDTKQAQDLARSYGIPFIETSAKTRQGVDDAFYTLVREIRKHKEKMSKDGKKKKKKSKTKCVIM
# KRAS WT, sequence (P01116 1-188 isoform P01116-2): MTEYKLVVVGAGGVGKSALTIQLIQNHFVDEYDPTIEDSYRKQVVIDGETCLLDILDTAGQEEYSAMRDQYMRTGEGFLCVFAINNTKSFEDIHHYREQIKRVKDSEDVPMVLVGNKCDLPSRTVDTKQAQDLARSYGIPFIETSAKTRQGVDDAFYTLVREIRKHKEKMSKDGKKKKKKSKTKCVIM
SMILES,IC50 [1] [nM],IC50 [2] [nM],IC50 [3] [nM],Remaining rate (%) 0 min ([4]; 0 h) [%],Remaining rate (%) 15 min ([4]; 0.25 h) [%],Remaining rate (%) 30 min ([4]; 0.5 h) [%],Remaining rate (%) 60 min ([4]; 1 h) [%],Remaining rate (%) 120 min ([4]; 2 h) [%]
"C#Cc1c(F)ccc2cc(O)cc(-c3nc4c5c(nc(OCC6(CN7CCC(=C(F)F)CC7)CC6)nc5c3F)N3C[C@H]5CC[C@H](N5)[C@H]3CO4)c12 [Example 1-1, 4-((5aS,6S,9R)-12-((1-((4-(difluoromethylene)piperidin-1-yl)methyl)cyclopropyl)methoxy)-1-fluoro-5a,6,7,8,9,10-hexahydro-5H-4-oxa-3,10a,11,13,14-pentaaza-6,9-methylenenaphtho[1,8-ab]heptalene-2-yl)-5-ethynyl-6-fluoronaphthalen-2-ol]",1.8,79,1,,,,,
"[2H]C([2H])([2H])[C@@H]1Oc2nc(-c3cc(O)cc4ccc(F)c(C#C)c34)c(F)c3nc(OCC4(CN5CCC(=C(F)F)CC5)CC4)nc(c23)N2C[C@H]3CC[C@H](N3)[C@@H]12 [Example 161, 4-((5S,5aS,6S,9R)-12-((1-((4-(difluoromethylene)piperidin-1-yl)methyl)cyclopropyl)methoxy)-1-fluoro-5-(methyl-d3)-5a,6,7,8,9,10-hexahydro-5H-4-oxa-3,10a,11,13,14-pentaaza-6,9-methylnaphtho[1,8-ab]hept-2-yl)-5-ethynyl-6-fluoronaphthalen-2-ol]",,,,100.00,94.50,98.84,98.63,95.03
